Reference: ChEMBL document CHEMBL4431353, “Optimization of a Series of Bivalent Triazolopyridazine Based Bromodomain and Extraterminal Inhibitors: The Discovery of (3R)-4-[2-[4-[1-(3-Methoxy-[1,2,4]triazolo[4,3-b]pyridazin-6-yl)-4-piperidyl]phenoxy]ethyl]-1,3-dimethyl-piperazin-2-one (AZD5153)” (J Med Chem, 2016)
≈ marks a conversion by molar mass, not a printed value.

Assays:
[1] = biological target: T1, Bromodomain testis-specific protein (Homo sapiens, UniProt Q58F21); test: Inhibition of human BRDT bromodomain 2 expressed in bacterial expression system
[2] = Oral bioavailability in dog; format: ADME, organism-based, Canis lupus familiaris; settings: in vivo
[3] = biological target: Bromodomain-containing protein 4 (Homo sapiens, UniProt O60885, N433A)
[4] = Intrinsic clearance in dog hepatocytes assessed per million cells; format: ADME, cell-based, Canis lupus familiaris, Hepatocyte; settings: read-out: CLH
[5] = biological target: T2, Bromodomain-containing protein 4 (Homo sapiens, UniProt O60885); test: Inhibition of human BRD4 bromodomain 1 expressed in bacterial expression system
[6] = Unbound fraction in rat plasma; format: ADME, cell-free
[7] = biological target: Transcription initiation factor TFIID subunit 1-like (Homo sapiens, UniProt Q8IZX4); test: Inhibition of human TAF1L bromodomain 2 expressed in bacterial expression system
[8] = Apparent permeability from apical to basolateral side in human Caco2 cells; format: ADME, cell-based; settings: Caco-2
[9] = biological target: Histone acetyltransferase p300 (Homo sapiens, UniProt Q09472); test: Inhibition of human EP300 expressed in bacterial expression system
[10] = biological target: T2, Bromodomain-containing protein 4; test: Inhibition of BRD4 in human MCF7 cells assessed as down regulation of ERalpha after 18 to 24 hrs by Hoechst staining based cellomics arrayscan analysis; format: cell-based
[11] = biological target: T3, Bromodomain-containing protein 2 (Homo sapiens, UniProt P25440); test: Inhibition of human BRD2 bromodomain 1 expressed in bacterial expression system
[12] = biological target: T4, Bromodomain-containing protein 9 (Homo sapiens, UniProt Q9H8M2); test: Inhibition of human BRD9 expressed in bacterial expression system
T4 sequence (Q9H8M2 whole entry): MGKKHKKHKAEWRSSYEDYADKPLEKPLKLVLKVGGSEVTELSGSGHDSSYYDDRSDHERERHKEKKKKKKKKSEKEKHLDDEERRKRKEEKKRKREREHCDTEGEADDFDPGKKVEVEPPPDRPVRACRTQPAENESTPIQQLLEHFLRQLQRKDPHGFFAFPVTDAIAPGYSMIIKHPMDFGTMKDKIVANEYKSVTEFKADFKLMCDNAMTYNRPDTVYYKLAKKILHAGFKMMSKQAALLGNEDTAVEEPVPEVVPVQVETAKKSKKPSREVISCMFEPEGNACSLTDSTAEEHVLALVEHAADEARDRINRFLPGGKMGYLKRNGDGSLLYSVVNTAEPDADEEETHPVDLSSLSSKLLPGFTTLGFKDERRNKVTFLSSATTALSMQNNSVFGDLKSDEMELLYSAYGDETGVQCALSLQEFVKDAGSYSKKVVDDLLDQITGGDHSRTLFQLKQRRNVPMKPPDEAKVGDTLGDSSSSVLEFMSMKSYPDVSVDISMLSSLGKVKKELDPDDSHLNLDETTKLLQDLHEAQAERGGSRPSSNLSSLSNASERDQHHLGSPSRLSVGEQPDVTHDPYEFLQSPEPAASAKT

[13] = biological target: Bromodomain-containing protein 4 (Homo sapiens, UniProt O60885, N140A)
[14] = Thermodynamic solubility of compound in pH 7.4 solution; format: physicochemical; settings: buffer, read-out: Therm_solubility
[15] = Lipophilicity, log D of compound at pH 7.4; format: physicochemical; settings: buffer
[16] = Intrinsic clearance in human hepatocytes assessed per million cells; format: ADME, cell-based, Hepatocyte; settings: read-out: CLH
[17] = Plasma clearance in dog; format: ADME, Canis lupus familiaris
[18] = test system: MM1.S; test: Growth inhibition of human MM1S cells after 72 hrs by alamar blue assay; format: functional
[19] = Plasma clearance in rat; format: ADME
[20] = biological target: T2, Bromodomain-containing protein 4; test: Displacement of Alexa647-labeled JQ1 derivative from wild type BRD4 tandem domain (44 to 460 residues) (unknown origin) incubated for 1 hr by fluorescence polarization assay
[21] = Intrinsic clearance in rat hepatocytes assessed per million cells; format: ADME, cell-based, Hepatocyte; settings: read-out: CLH
[22] = biological target: T5, Bromodomain-containing protein 3 (Homo sapiens, UniProt Q15059); test: Inhibition of human BRD3 bromodomain 1 expressed in bacterial expression system
[23] = Toxicity in SCID mouse xenografted with human MV4-11 cells assessed as body weight loss at 10 mg/kg, po administered daily through oral gavage for 14 days relative to control; format: organism-based; settings: in vivo, 336 h
[24] = biological target: T2, Bromodomain-containing protein 4; test: Inhibition of BRD4 in human MM1S cells assessed as down regulation of c-Myc incubated for 16 hrs by flow cytometry; format: cell-based
[25] = Metabolic stability in hepatic microsomes; format: ADME, Liver, Microsome
[26] = Volume of distribution at steady state in rat; format: ADME; settings: in vivo, read-out: Vdss
[27] = Volume of distribution at steady state in dog; format: ADME, Canis lupus familiaris; settings: in vivo, read-out: Vdss
[28] = biological target: Transcription initiation factor TFIID subunit 1 (Homo sapiens, UniProt P21675); test: Inhibition of human TAF1 bromodomain 2 expressed in bacterial expression system
[29] = biological target: T2, Bromodomain-containing protein 4; test: Inhibition of human BRD4 bromodomain 2 expressed in bacterial expression system
[30] = biological target: T1, Bromodomain testis-specific protein; test: Inhibition of human BRDT bromodomain 1 expressed in bacterial expression system
[31] = test system: Mus musculus; test: In vivo inhibition of BRD4 in SCID mouse xenografted with human MV4-11 cells assessed as free plasma concentration required to decrease c-Myc expression in tumor at 10 mg/kg, po administered as single dose measured after 8 hrs by qPCR method; format: functional
[32] = biological target: T5, Bromodomain-containing protein 3; test: Inhibition of human BRD3 bromodomain 2 expressed in bacterial expression system
[33] = Unbound fraction in dog plasma; format: ADME, cell-free, Canis lupus familiaris
[34] = biological target: CREB-binding protein (Homo sapiens, UniProt Q92793); test: Inhibition of human CREBBP expressed in bacterial expression system
[35] = test system: MV4-11; test: Antitumor activity against human MV4-11 cells xenografted in SCID mouse assessed as tumor growth inhibition at 10 mg/kg, po administered daily through oral gavage for 14 days measured twice per week during compound dosing relative to control; format: functional; settings: MV4-11, po, 336 h, read-out: TGI
[36] = Unbound fraction in human plasma; format: ADME, cell-free
[37] = biological target: T2, Bromodomain-containing protein 4; test: Inhibition of BRD4 in human LNCAP cells assessed as down regulation of nuclear AR level by immunofluorescence assay; format: cell-based
[38] = biological target: T3, Bromodomain-containing protein 2; test: Inhibition of human BRD2 bromodomain 2 expressed in bacterial expression system
[39] = Oral bioavailability in rat; format: ADME, organism-based; settings: in vivo

T3 sequence (P25440 whole entry): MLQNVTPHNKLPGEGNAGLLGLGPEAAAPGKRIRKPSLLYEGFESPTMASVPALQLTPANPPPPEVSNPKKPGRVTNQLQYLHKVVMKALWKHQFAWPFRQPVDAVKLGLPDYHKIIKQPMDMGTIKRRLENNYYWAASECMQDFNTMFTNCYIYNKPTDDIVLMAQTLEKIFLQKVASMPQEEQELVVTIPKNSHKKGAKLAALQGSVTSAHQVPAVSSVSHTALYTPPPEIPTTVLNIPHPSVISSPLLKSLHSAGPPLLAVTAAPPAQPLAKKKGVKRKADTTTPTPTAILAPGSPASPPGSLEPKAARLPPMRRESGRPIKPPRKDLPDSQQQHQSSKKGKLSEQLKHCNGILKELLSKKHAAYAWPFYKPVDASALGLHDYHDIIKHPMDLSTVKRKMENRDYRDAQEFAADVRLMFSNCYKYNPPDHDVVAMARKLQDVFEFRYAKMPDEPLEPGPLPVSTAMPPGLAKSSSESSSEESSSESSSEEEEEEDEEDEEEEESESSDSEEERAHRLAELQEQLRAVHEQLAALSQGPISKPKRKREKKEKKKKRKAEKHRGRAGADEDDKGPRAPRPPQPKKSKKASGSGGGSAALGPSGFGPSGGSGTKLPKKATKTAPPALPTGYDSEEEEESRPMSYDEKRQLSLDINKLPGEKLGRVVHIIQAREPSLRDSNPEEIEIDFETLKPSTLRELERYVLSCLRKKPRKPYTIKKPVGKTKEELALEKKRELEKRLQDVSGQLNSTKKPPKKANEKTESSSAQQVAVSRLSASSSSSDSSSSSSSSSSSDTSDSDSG
T5 sequence (Q15059 whole entry): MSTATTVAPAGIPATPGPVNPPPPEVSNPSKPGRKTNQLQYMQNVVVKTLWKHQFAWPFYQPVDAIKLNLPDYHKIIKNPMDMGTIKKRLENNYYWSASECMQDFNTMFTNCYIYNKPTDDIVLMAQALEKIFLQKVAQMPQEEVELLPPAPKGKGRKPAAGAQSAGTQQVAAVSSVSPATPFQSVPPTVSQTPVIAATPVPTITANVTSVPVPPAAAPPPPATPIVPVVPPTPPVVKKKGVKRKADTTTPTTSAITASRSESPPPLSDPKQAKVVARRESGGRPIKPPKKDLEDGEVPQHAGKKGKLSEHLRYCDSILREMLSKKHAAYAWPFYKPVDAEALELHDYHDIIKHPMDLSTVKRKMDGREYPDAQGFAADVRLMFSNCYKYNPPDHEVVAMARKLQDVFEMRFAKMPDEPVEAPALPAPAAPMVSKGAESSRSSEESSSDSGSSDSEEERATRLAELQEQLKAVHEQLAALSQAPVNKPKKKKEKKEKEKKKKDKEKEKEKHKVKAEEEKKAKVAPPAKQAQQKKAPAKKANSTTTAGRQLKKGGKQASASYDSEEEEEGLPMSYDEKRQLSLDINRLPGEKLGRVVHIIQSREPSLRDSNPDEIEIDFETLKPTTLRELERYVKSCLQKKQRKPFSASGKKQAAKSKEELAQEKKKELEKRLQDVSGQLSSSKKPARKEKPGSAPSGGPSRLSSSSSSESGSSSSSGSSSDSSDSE
Histone acetyltransferase p300, sequence (Q09472 whole entry): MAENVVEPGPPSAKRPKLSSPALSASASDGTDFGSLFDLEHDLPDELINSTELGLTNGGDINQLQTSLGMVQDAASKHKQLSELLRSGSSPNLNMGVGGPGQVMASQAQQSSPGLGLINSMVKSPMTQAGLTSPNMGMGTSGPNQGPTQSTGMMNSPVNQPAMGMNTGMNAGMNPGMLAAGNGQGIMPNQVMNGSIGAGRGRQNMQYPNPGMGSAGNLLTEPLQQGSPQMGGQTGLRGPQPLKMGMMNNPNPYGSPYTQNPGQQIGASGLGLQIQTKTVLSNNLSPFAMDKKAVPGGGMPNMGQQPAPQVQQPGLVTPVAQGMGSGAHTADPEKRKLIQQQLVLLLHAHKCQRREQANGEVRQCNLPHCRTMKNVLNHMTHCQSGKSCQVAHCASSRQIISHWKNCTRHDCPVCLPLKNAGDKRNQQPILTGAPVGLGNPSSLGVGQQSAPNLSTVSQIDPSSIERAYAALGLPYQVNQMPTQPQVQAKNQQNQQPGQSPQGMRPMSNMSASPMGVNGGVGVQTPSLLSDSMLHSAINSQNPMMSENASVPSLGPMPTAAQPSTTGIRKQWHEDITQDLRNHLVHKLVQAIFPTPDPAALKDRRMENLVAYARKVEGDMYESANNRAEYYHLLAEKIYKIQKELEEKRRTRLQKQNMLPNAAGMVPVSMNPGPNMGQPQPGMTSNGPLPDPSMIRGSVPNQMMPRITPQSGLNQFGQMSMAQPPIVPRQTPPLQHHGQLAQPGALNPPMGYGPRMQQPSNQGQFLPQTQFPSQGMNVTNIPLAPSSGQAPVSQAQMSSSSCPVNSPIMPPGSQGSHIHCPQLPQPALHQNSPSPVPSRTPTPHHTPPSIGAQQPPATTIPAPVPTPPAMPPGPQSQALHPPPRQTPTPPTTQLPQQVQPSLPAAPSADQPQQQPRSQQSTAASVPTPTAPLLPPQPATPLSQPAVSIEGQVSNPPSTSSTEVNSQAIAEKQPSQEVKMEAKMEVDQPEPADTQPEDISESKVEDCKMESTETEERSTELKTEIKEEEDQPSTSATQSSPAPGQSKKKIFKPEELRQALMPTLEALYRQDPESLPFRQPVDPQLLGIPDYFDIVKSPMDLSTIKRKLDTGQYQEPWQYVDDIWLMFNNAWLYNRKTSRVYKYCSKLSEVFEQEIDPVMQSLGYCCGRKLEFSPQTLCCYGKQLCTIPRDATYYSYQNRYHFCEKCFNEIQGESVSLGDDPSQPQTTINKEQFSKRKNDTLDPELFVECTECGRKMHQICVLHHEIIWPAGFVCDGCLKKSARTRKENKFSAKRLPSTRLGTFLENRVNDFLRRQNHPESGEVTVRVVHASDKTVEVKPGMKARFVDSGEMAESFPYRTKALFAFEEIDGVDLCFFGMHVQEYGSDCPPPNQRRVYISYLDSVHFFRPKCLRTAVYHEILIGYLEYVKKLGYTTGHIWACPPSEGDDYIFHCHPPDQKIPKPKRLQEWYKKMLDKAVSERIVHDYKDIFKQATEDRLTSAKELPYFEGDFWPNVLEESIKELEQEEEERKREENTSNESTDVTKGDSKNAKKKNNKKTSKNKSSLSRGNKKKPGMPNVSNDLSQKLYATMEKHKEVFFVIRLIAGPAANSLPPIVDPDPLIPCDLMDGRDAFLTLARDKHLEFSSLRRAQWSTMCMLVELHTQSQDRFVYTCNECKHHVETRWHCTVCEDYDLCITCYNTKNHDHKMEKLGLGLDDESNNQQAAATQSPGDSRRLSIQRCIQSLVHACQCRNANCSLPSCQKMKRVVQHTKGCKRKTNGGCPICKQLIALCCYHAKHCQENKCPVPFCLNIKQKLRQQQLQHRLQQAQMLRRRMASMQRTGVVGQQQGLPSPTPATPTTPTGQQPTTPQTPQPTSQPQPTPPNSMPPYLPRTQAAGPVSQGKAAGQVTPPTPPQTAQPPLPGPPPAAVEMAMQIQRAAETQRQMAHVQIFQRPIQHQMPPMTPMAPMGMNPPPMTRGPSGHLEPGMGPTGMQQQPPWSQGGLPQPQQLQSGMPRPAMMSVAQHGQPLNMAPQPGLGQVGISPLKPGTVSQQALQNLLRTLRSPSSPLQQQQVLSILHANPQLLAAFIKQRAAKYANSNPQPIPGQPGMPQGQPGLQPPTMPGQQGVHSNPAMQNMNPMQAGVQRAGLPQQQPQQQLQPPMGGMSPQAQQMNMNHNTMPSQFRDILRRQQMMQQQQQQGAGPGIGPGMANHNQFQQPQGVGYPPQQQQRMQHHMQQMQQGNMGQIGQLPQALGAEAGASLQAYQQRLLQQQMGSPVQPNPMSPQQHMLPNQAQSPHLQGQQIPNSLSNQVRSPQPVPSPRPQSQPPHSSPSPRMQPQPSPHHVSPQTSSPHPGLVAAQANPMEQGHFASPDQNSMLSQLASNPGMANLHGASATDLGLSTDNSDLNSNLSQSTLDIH

- Ki [1]: 501 nM
- bioavailability [2]: 55%
- Ki [3]: 126 nM
- hepatocyte CLint [4]: < 1 µL/min/1e6 cells
- Ki [5]: 50.1 nM
- fraction unbound [6]: 0.04
- Ki [7]: 2510 nM
- Papp A→B [8]: 40 ×10⁻⁶ cm/s
- Ki [9]: < 10000 nM
- IC50 [10]: 25.1 nM
- Ki [11]: 100 nM
- Ki [12]: 2510 nM
- Ki [13]: 158 nM
- solubility thermodynamic [14]: 1600 to 1650 µM (≈ 767 to 791 µg/mL)
- logD [15]: 2.3
- hepatocyte CLint [16]: 3.5 to 4 µL/min/1e6 cells
- clearance [17]: 6 mL/min/kg
- GI50 [18]: 5.01 nM
- clearance [19]: 4 mL/min/kg
- Ki [20]: 5.01 nM
- hepatocyte CLint [21]: 5 µL/min/1e6 cells
- Ki [22]: 63.1 nM
- IC50 [24]: 12.6 nM
- Stability [25]: Stable
- Vd [26]: 0.9 L/kg
- Vd [27]: 0.4 L/kg
- Ki [28]: 1260 nM
- Ki [29]: 126 nM
- Ki [30]: 100 nM
- Ki [32]: 398 nM
- fraction unbound [33]: 0.24
- Ki [34]: 6310 nM
- fraction unbound [36]: 0.23
- IC50 [37]: 20 nM
- Ki [38]: 251 nM
- bioavailability [39]: 81%
Compound: COc1nnc2ccc(N3CCC(c4ccc(OCCN5CCN(C)C(=O)[C@H]5C)cc4)CC3)nn12 [AZD-5153]
- Activity [23]: 8%
- Cp(f) [31]: <0.2 µM
- inhibition in vivo at 10 mg/kg [35]: > 100%
